BindingDB's records for patent US20250320228 (Merck Patent, 2025)

Biological target: Mitogen-activated protein kinase kinase kinase kinase 1 (Homo sapiens, UniProt Q92918)
Test: HPK1 Kinase Assay
Method: A recombinant fusion protein consisting of full-length human HPK1 (MAP4K1) with an N-terminal Glutatione S-transferase (GST) tag was produced in insect cells Sf21 using the baculovirus expression system. GST-HPK1 protein was purified from cell lysates by glutathione Sepharose affinity chromatography. The assay is run in three continuous steps: 1) the HPK1 enzymatic kinase reaction, 2) an ATP depletion, and 3) the ADP detection, the steps 2 and 3 are performed with ADP-Glo™ Kinase Assay kit from Promega (V9101). Test compounds were prepared by 10-point serial dilution in dimethyl sulfoxide (DMSO) and 100 nL of each dilution was spotted onto a 384-well Optiplate (Perkin Elmer and Cat #6007299) by Labcyte Echo. 5 μL kinase reaction buffer (0.02% Brij-35, 2 mM DTT, 50 mM HEPES pH 7.5, MgCl2 10 mM, BSA 0.01% and β-glycerophosphate 12.5 mM) containing HPK1 (3.2 nM) enzyme was transferred to each well and incubated for 15 minutes at room temperature at 60% humidity. The enzymatic reaction was started by adding 5 μl of Start-Mix (10 μM ATP and 3.235 μM MBP). After 120 minutes, the reaction was stopped by adding 5 μL of ADP-Glo reagent (Promega, V9101) and incubating for 40 min. in the dark at 23° C. To determine the level of ADP, 10 μl ADP-Glo Detection solution was added and incubated for 1 hour at 23° C. in the dark. The plate was transferred to a Perkin Elmer EnVision (2104 Multilabel Reader) for luminescence detection and percent inhibition activity and IC50 value were determined using Genedata Screener.

Chain of Mitogen-activated protein kinase kinase kinase kinase 1 (Q92918 whole entry): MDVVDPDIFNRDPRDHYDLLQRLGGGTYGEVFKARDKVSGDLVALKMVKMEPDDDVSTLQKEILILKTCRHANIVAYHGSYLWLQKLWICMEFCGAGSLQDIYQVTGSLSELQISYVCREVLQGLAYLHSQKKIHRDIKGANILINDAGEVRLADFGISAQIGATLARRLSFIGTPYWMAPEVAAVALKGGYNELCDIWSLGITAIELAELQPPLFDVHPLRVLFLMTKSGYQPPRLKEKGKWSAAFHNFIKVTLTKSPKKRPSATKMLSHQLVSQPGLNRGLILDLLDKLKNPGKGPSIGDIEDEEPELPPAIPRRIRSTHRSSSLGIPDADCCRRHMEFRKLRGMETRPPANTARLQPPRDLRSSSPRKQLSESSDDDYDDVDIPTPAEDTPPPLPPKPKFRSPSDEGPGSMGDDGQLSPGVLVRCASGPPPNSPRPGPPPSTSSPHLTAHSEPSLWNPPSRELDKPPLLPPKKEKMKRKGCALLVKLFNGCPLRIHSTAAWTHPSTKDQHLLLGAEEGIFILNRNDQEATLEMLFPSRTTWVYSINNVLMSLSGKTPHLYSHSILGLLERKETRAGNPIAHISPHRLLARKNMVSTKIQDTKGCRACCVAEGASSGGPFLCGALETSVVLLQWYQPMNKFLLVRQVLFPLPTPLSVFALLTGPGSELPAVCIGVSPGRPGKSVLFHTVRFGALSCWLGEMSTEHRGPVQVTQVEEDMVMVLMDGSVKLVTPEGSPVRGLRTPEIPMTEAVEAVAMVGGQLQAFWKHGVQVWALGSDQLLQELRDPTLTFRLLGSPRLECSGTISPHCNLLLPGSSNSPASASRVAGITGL

Structure (SMILES) | IC50 [nM]
NC(=O)c1cc(-c2ccc(CN3CCOCC3)cc2)nc2c(N3CC[C@@H](F)[C@H](N)C3)ncnc12 [US20250320228, Example 22] | > 1000
COCc1n[nH]c(-c2cc(C(N)=O)c3ncnc(N[C@H]4CCCNC4)c3n2)n1 [US20250320228, Example 13] | > 1000
N#C[C@H]1COCCN1Cc1ccc(-c2cc(C(N)=O)c3ncnc(N[C@H]4CCCNC4)c3n2)cc1 [US20250320228, Example 14] | < 100
NC(=O)c1cc(-c2ccc(CN3CCOC[C@H]3C(F)(F)F)cc2)nc2c(N[C@H]3CCCNC3)ncnc12 [US20250320228, Example 15] | < 100
NC(=O)c1cc(-c2ccc(CN3CCOCC3)cc2)nc2c(NC34CNCC3C4)ncnc12 (stereo not given) [US20250320228, Example 20] | < 100

Next, values leading:

IC50 [nM] | Structure (SMILES)
< 100 | NC(=O)c1cc(-c2ccc(OC(F)(F)F)cc2)nc2c(N[C@@H]3CNC[C@H](F)C3)ncnc12 [US20250320228, Example 71]
< 100 | CN1CCc2cc(-c3cc(C(N)=O)c4ncnc(N[C@H]5CCCNC5)c4n3)nn2CC1=O [US20250320228, Example 45]
< 100 | NC(=O)c1cc(-c2cc(F)c(OCC3(O)CCC3)c(F)c2)nc2c(N[C@H]3CCCNC3)ncnc12 [US20250320228, Example 39]
< 100 | NC(=O)c1cc(-c2ccc(CN3CCOCC3)cc2)nc2c(N[C@@H]3CNC[C@H](F)C3)ncnc12 [US20250320228, Example 26]
< 100 | C[C@@H](N)CNc1ncnc2c(C(N)=O)cc(-c3ccc(CN4CCOCC4)cc3)nc12 [US20250320228, Example 25]
